Laboratory results reported in patent publication US20160244405A1, “COMPOSITIONS AND METHODS FOR THE TREATMENT OF HYPERGLYCEMIA AND METABOLIC SYNDROME” (priority 2015, published 2016).
≈ marks a conversion by molar mass, not a printed value. Read-outs that look alike come from different tables or passages of the source.

Experiment: Water solubility by adding distilled water in portions until a clear solution
Type: physicochemical
Conditions: thermodynamic from solid
Protocol: The Solubility of the Compound of amino(3,3-dimethylguanidino)methaniminium (S)-2-((5Z,8Z,11Z,14Z,17Z)-icosa-5,8,11,14,17-pentaenamido)-4-methylpentanoate, Example-1 in Water was Compared with that of Eicosapentaenoic Acid (EPA) Measurement of the water solubility of the test compound was accomplished by using methods well known to those skilled in the art. Specifically, to a weighed amount of the test compounds of Example-1 and EPA were taken in separate vials; distilled water was added in small portions until a clear solution was obtained. The water solubility is calculated by dividing the weight of salt, in mg, by the volume of the solution, in mL. The water solubility of the compounds of example-1 compared to EPA alone were as follows: […]

| solubility (distilled water, weight of salt in mg divided by volume of solution in mL, read-out: water solubility) [mg/mL] | SMILES | solubility (water) [mg/mL] |
| --- | --- | --- |
| < 0.3 | CC/C=C\C/C=C\C/C=C\C/C=C\C/C=C\CCCC(=O)O [EPA, eicosapentaenoic acid] |  |
|  | CC/C=C\C/C=C\C/C=C\C/C=C\C/C=C\CCCC(=O)N[C@@H](CC(C)C)C(=O)O [Example-1, amino(3,3-dimethylguanidino)methaniminium (S)-2-((5Z,8Z,11Z,14Z,17Z)-icosa-5,8,11,14,17-pentaenamido)-4-methylpentanoate] | 118 (≈ 284 mM) |
